In brackets after ≈: the same amount, converted by molar mass.
Legend:
[1] = Kinetic solubility of the compound in HCl at pH 2 after 20 hrs by shake flask method; format: physicochemical; details: read-out: Kinetic_solubility
[2] = Kinetic solubility of the compound in phosphate buffered saline at pH 6.5 after 20 hrs by shake flask method; format: physicochemical; details: read-out: Kinetic_solubility
[3] = Kinetic solubility of the compound in FaSSIF at pH 6.5 after 20 hrs by shake flask method; format: physicochemical; details: read-out: Kinetic_solubility
[4] = Drug metabolism in iv or po dosed Sprague-Dawley rat plasma assessed as oxidation of pyridine ring by LC-MS/MS method; format: ADME, organism-based; details: in vivo
[5] = Drug metabolism in iv or po dosed Sprague-Dawley rat plasma assessed as oxidation of phenyl ring by LC-MS/MS method; format: ADME, organism-based; details: in vivo

Structure (SMILES) | solubility kinetic at 20 h [1] [µM] | solubility kinetic at 20 h [2] [µM] | solubility kinetic at 20 h [3] [µM] | Drug metabolism [4] | Drug metabolism [5]
FC(F)(F)c1cccc(-c2nc3cnc(Nc4cccc(C(F)(F)F)n4)cc3[nH]2)c1 | 51 (≈ 21.6 µg/mL) | < 5 | 50 to 100 (≈ 21.2 to 42.3 µg/mL) | – | –
FC(F)(F)c1cccc(-c2nc3cnc(Nc4ccc(-c5nnn[nH]5)cn4)cc3[nH]2)c1 | < 5 | < 5 | < 5 | – | –
CC1(c2nc3cnc(Nc4ccc(C(F)(F)F)cn4)cc3[nH]2)CC1 | 200 (≈ 66.7 µg/mL) | 188 (≈ 62.7 µg/mL) | 179 (≈ 59.7 µg/mL) | – | –
FC(F)(F)c1ccc(Nc2cc3[nH]c([C@H]4CC[C@H](C(F)(F)F)CC4)nc3cn2)nc1 | 200 (≈ 85.9 µg/mL) | < 5 | 104 (≈ 44.7 µg/mL) | – | –
Fc1ccc(-c2nc3cnc(Nc4cc(C(F)(F)F)ccn4)cc3[nH]2)cc1F | < 5 | < 5 | 50 to 100 (≈ 19.6 to 39.1 µg/mL) | – | –
Fc1ccc(-c2nc3cnc(Nc4ccccn4)cc3[nH]2)cc1F | 125 (≈ 40.4 µg/mL) | < 5 | 50 to 100 (≈ 16.2 to 32.3 µg/mL) | – | –
Fc1ccc(Nc2cc3[nH]c(C4CCC(F)(F)CC4)nc3cn2)nc1 | 200 (≈ 69.5 µg/mL) | 170 (≈ 59 µg/mL) | 170 (≈ 59 µg/mL) | – | –
FC(F)(F)c1cccc(-c2nc3cnc(Nc4ccc(N5CCOCC5)cn4)cc3[nH]2)c1 | 87 (≈ 38.3 µg/mL) | < 5 | 35 (≈ 15.4 µg/mL) | – | –
FC(F)(F)c1ccc(Nc2cc3[nH]c(C4CC4)nc3cn2)nc1 | 198 (≈ 63.2 µg/mL) | < 5 | 123 (≈ 39.3 µg/mL) | – | –
FC(F)(F)c1ccc(Nc2cc3[nH]c(C4CCOCC4)nc3cn2)nc1 | 196 (≈ 71.2 µg/mL) | 155 (≈ 56.3 µg/mL) | 168 (≈ 61 µg/mL) | – | –
FC(F)(F)c1ccc(-c2nc3cnc(Nc4ccccn4)cc3[nH]2)cn1 | 180 (≈ 64.1 µg/mL) | < 5 | 50 to 100 (≈ 17.8 to 35.6 µg/mL) | – | –
O=C(c1ccc(Nc2cc3[nH]c(-c4ccc(C(F)(F)F)nc4)nc3cn2)nc1)N1CCNCC1 | 200 (≈ 93.7 µg/mL) | 168 (≈ 78.7 µg/mL) | 161 (≈ 75.4 µg/mL) | – | –
FC(F)(F)c1cccc(-c2nc3cnc(Nc4cc(-c5nnn[nH]5)ccn4)cc3[nH]2)c1 | < 5 | < 5 | < 5 | – | –
O=C(O)c1ccnc(Nc2cc3[nH]c(-c4cccc(C(F)(F)F)c4)nc3cn2)c1 | < 5 | < 5 | 60 (≈ 24 µg/mL) | – | –
O=C(NC1CC1)c1ccc(Nc2cc3[nH]c(-c4ccc(C(F)(F)F)nc4)nc3cn2)nc1 | 99 (≈ 43.5 µg/mL) | < 5 | < 5 | – | –
Fc1ccnc(Nc2cc3[nH]c(-c4ccc(F)c(F)c4)nc3cn2)c1 | 166 (≈ 56.7 µg/mL) | < 5 | 50 to 100 (≈ 17.1 to 34.1 µg/mL) | – | –
CNC(=O)c1ccc(Nc2cc3[nH]c(-c4ccc(C(F)(F)F)nc4)nc3cn2)nc1 | 170 (≈ 70.3 µg/mL) | < 5 | < 5 | – | –
FC1(F)CC(c2nc3cnc(Nc4ccc(C(F)(F)F)cn4)cc3[nH]2)C1 | 181 (≈ 66.8 µg/mL) | 118 (≈ 43.6 µg/mL) | 161 (≈ 59.5 µg/mL) | – | –
FC(F)(F)c1cccc(-c2nc3cnc(Nc4ncccn4)cc3[nH]2)c1 | 155 (≈ 55.2 µg/mL) | < 5 | – | – | –
FC(F)(F)Oc1ccc(-c2nc3cnc(Nc4ccccn4)cc3[nH]2)cc1 | 26 (≈ 9.65 µg/mL) | < 5 | – | – | –
Fc1ccc(-c2nc3cnc(Nc4ccc(C(F)(F)F)cn4)cc3[nH]2)cc1F | 6 (≈ 2.35 µg/mL) | < 5 | 50 to 100 (≈ 19.6 to 39.1 µg/mL) | – | –
Fc1ccc(Nc2cc3[nH]c(-c4ccc(F)c(F)c4)nc3cn2)nc1 | 42 (≈ 14.3 µg/mL) | < 5 | 50 to 100 (≈ 17.1 to 34.1 µg/mL) | Metabolite_Detected | Metabolite_Notdetected
FC(F)(F)c1ccc(Nc2cc3[nH]c(-c4cccc(C(F)(F)F)c4)nc3cn2)nc1 | < 5 | < 5 | 50 to 100 (≈ 21.2 to 42.3 µg/mL) | Metabolite_Detected | Metabolite_Notdetected
CCOC(=O)c1ccc(Nc2cc3[nH]c(-c4ccc(C(F)(F)F)nc4)nc3cn2)nc1 | 164 (≈ 70.3 µg/mL) | < 5 | 127 (≈ 54.4 µg/mL) | – | –

Structure (SMILES) | solubility kinetic at 20 h [1] [µM] | solubility kinetic at 20 h [2] [µM] | solubility kinetic at 20 h [3] [µM] | Drug metabolism [4] | Drug metabolism [5]
COc1cccnc1Nc1cc2[nH]c(-c3cccc(C(F)(F)F)c3)nc2cn1 | 116 (≈ 44.7 µg/mL) | < 5 | – | – | –
COc1cccc(Nc2cc3[nH]c(-c4cccc(C(F)(F)F)c4)nc3cn2)n1 | 85 (≈ 32.8 µg/mL) | < 5 | – | – | –
O=C(O)c1ccc(Nc2cc3[nH]c(-c4cccc(C(F)(F)F)c4)nc3cn2)nc1 | < 5 | 6 (≈ 2.4 µg/mL) | 6 (≈ 2.4 µg/mL) | – | –
O=C(O)c1ccc(Nc2cc3[nH]c(-c4ccc(F)c(F)c4)nc3cn2)nc1 | 11 (≈ 4.04 µg/mL) | 7 (≈ 2.57 µg/mL) | 9 (≈ 3.31 µg/mL) | – | –
FC(F)(F)c1ccc(Nc2cc3[nH]c(C4CCOC4)nc3cn2)nc1 (configuration not stated) | 200 (≈ 69.9 µg/mL) | 166 (≈ 58 µg/mL) | 180 (≈ 62.9 µg/mL) | – | –
FC(F)(F)c1cccc(-c2nc3cnc(Nc4ccncn4)cc3[nH]2)c1 | 200 (≈ 71.3 µg/mL) | < 5 | – | – | –
O=C(c1ccc(Nc2cc3[nH]c(-c4ccc(C(F)(F)F)nc4)nc3cn2)nc1)N1CCCC1 | 196 (≈ 88.9 µg/mL) | < 5 | < 5 | – | –
CN1CCN(c2ccc(Nc3cc4[nH]c(-c5cccc(C(F)(F)F)c5)nc4cn3)nc2)CC1 | 190 (≈ 86.2 µg/mL) | – | < 5 | – | –
COC(=O)c1ccc(Nc2cc3[nH]c(-c4ccc(C(F)(F)F)nc4)nc3cn2)nc1 | 182 (≈ 75.4 µg/mL) | 12 (≈ 4.97 µg/mL) | 16 (≈ 6.63 µg/mL) | – | –
COc1ccc(Nc2cc3[nH]c(-c4cccc(C(F)(F)F)c4)nc3cn2)nc1 | < 5 | < 5 | – | – | –
O=C(O)c1ccnc(Nc2cc3[nH]c(-c4ccc(C(F)(F)F)nc4)nc3cn2)c1 | < 5 | < 5 | < 5 | – | –
FC1(F)CCC(c2nc3cnc(Nc4ccc(C(F)(F)F)cn4)cc3[nH]2)C1 (configuration not stated) | 185 (≈ 70.9 µg/mL) | 120 (≈ 46 µg/mL) | 163 (≈ 62.5 µg/mL) | – | –
FC(F)(F)c1cccc(-c2nc3cnc(Nc4cnccn4)cc3[nH]2)c1 | 155 (≈ 55.2 µg/mL) | < 5 | – | – | –
Fc1ccc(-c2nc3cnc(Nc4ccccn4)cc3[nH]2)cc1C(F)(F)F | 7 (≈ 2.61 µg/mL) | < 5 | 50 to 100 (≈ 18.7 to 37.3 µg/mL) | – | –
FC(F)(F)c1cccc(-c2nc3cnc(Nc4ccncc4)cc3[nH]2)c1 | 200 (≈ 71.1 µg/mL) | 10 (≈ 3.55 µg/mL) | – | – | –
COc1ccnc(Nc2cc3[nH]c(-c4cccc(C(F)(F)F)c4)nc3cn2)c1 | < 5 | < 5 | – | – | –
N#Cc1ccc(Nc2cc3[nH]c(-c4cccc(C(F)(F)F)c4)nc3cn2)nc1 | < 5 | < 5 | 50 to 100 (≈ 19 to 38 µg/mL) | – | –
NC(=O)c1ccc(Nc2cc3[nH]c(-c4cccc(C(F)(F)F)c4)nc3cn2)nc1 | < 5 | < 5 | < 5 | – | –
Fc1ccc(Nc2cc3[nH]c(-c4cccc(C(F)(F)F)c4)nc3cn2)nc1 | < 5 | < 5 | 50 to 100 (≈ 18.7 to 37.3 µg/mL) | – | –
O=C(c1ccc(Nc2cc3[nH]c(-c4ccc(C(F)(F)F)nc4)nc3cn2)nc1)N1CCOCC1 | 200 (≈ 93.9 µg/mL) | 33 (≈ 15.5 µg/mL) | 58 (≈ 27.2 µg/mL) | – | –
Fc1cnc(Nc2cc3[nH]c(-c4cccc(C(F)(F)F)c4)nc3cn2)c(F)c1 | < 5 | < 5 | 50 to 100 (≈ 19.6 to 39.1 µg/mL) | – | –
FC(F)(F)c1cccc(-c2nc3cnc(Nc4cccnn4)cc3[nH]2)c1 | 161 (≈ 57.4 µg/mL) | < 5 | – | – | –
FC(F)(F)c1ccc(Nc2cc3[nH]c(CC4CC4)nc3cn2)nc1 | 186 (≈ 62 µg/mL) | 118 (≈ 39.3 µg/mL) | 156 (≈ 52 µg/mL) | – | –
O=C(O)c1ccc(Nc2cc3[nH]c(-c4ccc(C(F)(F)F)nc4)nc3cn2)nc1 | 8 (≈ 3.2 µg/mL) | < 5 | < 5 | – | –

Source: ChEMBL document CHEMBL4184318, “Identification of Fast-Acting 2,6-Disubstituted Imidazopyridines That Are Efficacious in the in Vivo Humanized Plasmodium falciparum NODscidIL2Rγ null Mouse Model of Malaria” (J Med Chem, 2018)
